This passage reports IC50 results from patent US7566712B2, “Biaryl piperazinyl-pyridine analogues” (Neurogen Corporation, priority 2003, dated 2009).

This assay has as its target T1, human capsaicin receptor (Homo sapiens, UniProt Q8NER1).
T1 construct: pBK-CMV expression construct encoding the full length human capsaicin receptor; expressed in transfected cells
In words: Calcium mobilization assay, determination of antagonist activity (Example 6). The assay is classed as cell-based. As to conditions: Table II. As for the experimental part: A cDNA encoding full length human capsaicin receptor (SEQ ID NO: 1, 2 or 3 of U.S. Pat. No. 6,482,611) was subcloned in the plasmid pBK-CMV (Stratagene, La Jolla, Calif.) for recombinant expression in mammalian cells.
Human embryonic kidney (HEK293) cells were transfected with the pBK-CMV expression construct encoding the full length human capsaicin receptor using standard methods. The transfected cells were selected for two weeks in media containing G418 (400 μg/ml) to obtain a pool of stably transfected cells. Independent clones were isolated from this pool by limiting dilution to obtain clonal stable cell lines for use in subsequent experiments.
This Example illustrates representative calcium mobilization assays for use in evaluating test compounds for agonist and antagonist activity.
Cells transfected with expression plasmids (as described in Example 4) and thereby expressing human capsaicin receptor are seeded and grown to 70-90% confluency in FALCON black-walled, clear-bottomed 96-well plates (#3904, BECTON-DICKINSON, Franklin Lakes, N.J.). The culture medium is emptied from the 96 well plates and FLUO-3 AM calcium sensitive dye (Molecular Probes, Eugene, Oreg.) is added to each well (dye solution: 1 mg FLUO-3 AM, 440 μL DMSO and 440 pi 20% pluronic acid in DMSO, diluted 1:250 in Krebs-Ringer HEPES (KRH) buffer (25 mM HEPES, 5 mM KCl, 0.96 mM NaH2PO4, 1 mM MgSO4, 2 mM CaCl2, 5 mM glucose, 1 mM probenecid, pH 7.4), 50 μl diluted solution per well). Plates are covered with aluminum foil and incubated at 37° C. for 1-2 hours in an environment containing 5% CO2. After the incubation, the dye is emptied from the plates, and the cells are washed once with KRH buffer, and resuspended in KRH buffer.
To measure the ability of a test compound to agonize or antagonize a calcium mobilization response in cells expressing capsaicin receptors to capsaicin or other vanilloid agonist, the EC50 of the agonist capsaicin is first determined. An additional 20 μl of KRH buffer and 1 μl DMSO is added to each well of cells, prepared as described above. 100 μl capsaicin in KRH buffer is automatically transferred by the FLIPR instrument to each well. Capsaicin-induced calcium mobilization is monitored using either FLUOROSKAN ASCENT (Labsystems; Franklin, Mass.) or FLIPR (fluorometric imaging plate reader system; Molecular Devices, Sunnyvale, Calif.) instruments. Data obtained between 30 and 60 seconds after agonist application are used to generate an 8-point concentration response curve, with final capsaicin concentrations of 1 nM to 3 μM. KALEIDAGRAPH software (Synergy Software, Reading, Pa.) is used to fit the data to the equation: y=a*(1/(1+(b/x)^c)) to determine the 50% excitatory concentration (EC50) for the response. In this equation, y is the maximum fluorescence signal, x is the concentration of the agonist or antagonist (in this case, capsaicin), a is the Emax, b corresponds to the EC50 value and c is the Hill coefficient. Determination of Agonist Activity
Test compounds are dissolved in DMSO, diluted in 20 μl KRH buffer so that the final concentration of test compounds in the assay well is between 1 μM and 5 μM, and added to cells prepared as described above. The 96 well plates containing prepared cells and test compounds are incubated in the dark, at room temperature for 0.5 to 6 hours. It is important that the incubation not continue beyond 6 hours. Just prior to determining the fluorescence response, 100 pi capsaicin in KRH buffer at twice the EC50 concentration determined as described above is automatically added by the FLIPR instrument to each well of the 96 well plate for a final sample volume of 200 μl and a final capsaicin concentration equal to the EC50. The final concentration of test compounds in the assay wells is between 1 μM and 5 μM. […]
On the technique in general: Calcium assays in cells follow changes in intracellular calcium, usually with a dye or a luminescent sensor.

[1] abbreviates: determined as described in Example 6, class symbol.
[2] abbreviates: IC50 determined as described in Example 6.

T1 sequence (Q8NER1 whole entry): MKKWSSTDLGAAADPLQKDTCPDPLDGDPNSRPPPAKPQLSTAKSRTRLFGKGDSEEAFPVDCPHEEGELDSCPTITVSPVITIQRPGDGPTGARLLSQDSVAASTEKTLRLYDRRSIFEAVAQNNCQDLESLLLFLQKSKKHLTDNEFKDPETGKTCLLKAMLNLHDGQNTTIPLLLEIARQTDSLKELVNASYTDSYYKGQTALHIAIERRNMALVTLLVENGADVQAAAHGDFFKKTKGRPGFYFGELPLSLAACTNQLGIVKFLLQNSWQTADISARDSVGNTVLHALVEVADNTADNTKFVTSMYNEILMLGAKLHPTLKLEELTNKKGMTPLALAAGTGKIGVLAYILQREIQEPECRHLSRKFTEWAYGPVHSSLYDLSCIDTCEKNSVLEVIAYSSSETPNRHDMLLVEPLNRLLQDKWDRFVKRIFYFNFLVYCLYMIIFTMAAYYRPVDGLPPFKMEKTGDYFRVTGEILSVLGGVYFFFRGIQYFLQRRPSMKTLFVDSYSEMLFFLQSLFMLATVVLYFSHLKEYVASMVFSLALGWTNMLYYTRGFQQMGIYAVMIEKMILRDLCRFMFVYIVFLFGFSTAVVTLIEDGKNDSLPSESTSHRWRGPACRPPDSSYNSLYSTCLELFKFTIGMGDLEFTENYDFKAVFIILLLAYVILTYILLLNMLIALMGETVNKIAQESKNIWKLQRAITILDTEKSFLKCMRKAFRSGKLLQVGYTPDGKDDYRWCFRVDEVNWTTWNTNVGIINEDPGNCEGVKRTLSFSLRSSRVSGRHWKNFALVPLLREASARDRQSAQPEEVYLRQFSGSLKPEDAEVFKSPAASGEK

For orientation: IC50 means the point on the concentration scale where inhibition reaches its midpoint. For `Cc1cccc(-c2nc(N3CCOCC3)nc(N3CCN(c4ncccc4C(F)(F)F)CC3)n2)c1` [Example 238, 2-(3-methylphenyl)-4-morpholin-4-yl-6-{4-[3-(trifluoromethyl)pyridin-2-yl]piperazin-1-yl}-1,3,5-triazine], the IC50 under setting [1] is ≤ 1000 nM.

Turning to `Cc1cccc(-c2nc(N3CCCCCC3)nc(N3CCN(c4ncccc4C(F)(F)F)CC3)n2)c1` [Example 262, 1-(4-(3-methylphenyl)-6-{4-[3-(trifluoromethyl)pyridin-2-yl]piperazin-1-yl}-1,3,5-triazin-2-yl)azepane], the IC50 under setting [1] is ≤ 1000 nM.

Turning to `Cc1cccc(-c2nc(N3CCN(c4ncccc4C(F)(F)F)CC3)nc(N3CC(C)OC(C)C3)n2)c1` (centres unmarked) [Example 263, 2-(2,6-dimethylmorpholin-4-yl)-4-(3-methylphenyl)-6-{4-[3-(trifluoromethyl)pyridin-2-yl]piperazin-1-yl}-1,3,5-triazine], the IC50 under setting [1] was ≤ 1000 nM.

In the case of `Fc1ccc(-c2nc(N3CCCCCC3)nc(N3CCN(c4ncccc4C(F)(F)F)CC3)n2)cc1Cl` [Example 265, 1-(4-(3-chloro-4-fluorophenyi)-6-{4-[3-(trifluoromethyl)pyridin-2-yl]piperazin-1-yl}-1,3,5-triazin-2-yl)azepane], under setting [1], the IC50 is ≤ 1000 nM.

Consider `CC1CN(c2nc(-c3ccc(F)c(Cl)c3)nc(N3CCN(c4ncccc4C(F)(F)F)CC3)n2)CC(C)O1` (centres unmarked) [Example 266, 2-(3-chloro-4-fluorophenyl)-4-(2,6-dimethylmorpholin-4-yl)-6-{4-[3-(trifluoromethyl)pyridin-2-yl]piperazin-1-yl}-1,3,5-triazine], for which the IC50 under setting [1] was ≤ 1000 nM.

As to `Cc1ccccc1-c1nc(N2CCOCC2)nc(N2CCN(c3ccccn3)CC2)n1` [Example 268, 2-(2-methylphenyl)-4-morpholin-4-yl-6-(4-pyridin-2-ylpiperazin-1-yl)-1,3,5-triazine], under setting [1], the IC50 was ≤ 1000 nM.

Turning to `Cc1ccc(C)c(-c2nc(N3CCOCC3)nc(N3CCN(c4ccccn4)CC3)n2)c1` [Example 269, 2-(2,5-dimethylphenyl)-4-morpholin-4-yl-6-(4-pyridin-2-ylpiperazin-1-yl)-1,3,5-triazine], under setting [1], the IC50 was ≤ 1000 nM.

For `c1ccc(N2CCN(c3nc(-c4cccc5ccccc45)nc(N4CCOCC4)n3)CC2)nc1` [Example 270, 2-morpholin-4-yl-4-(1-naphthyl)-6-(4-pyridin-2-ylpiperazin-1-yl)-1,3,5-triazine], the IC50 under setting [1] was ≤ 1000 nM.

For `Cc1cccc(-c2nc(N3CCOCC3)nc(N3CCN(c4ccccn4)CC3)n2)c1C` [Example 271, 2-(2,3-dimethylphenyl)-4-morpholin-4-yl-6-(4-pyridin-2-ylpiperazin-1-yl)-1,3,5-triazine], the half-inhibitory concentration (IC50) under setting [1] was ≤ 1000 nM.

With `Cc1ccc(F)cc1-c1nc(N2CCOCC2)nc(N2CCN(c3ccccn3)CC2)n1` [Example 272, 2-(5-fluoro-2-methylphenyl)-4-morpholin-4-yl-6-(4-pyridin-2-ylpiperazin-1-yl)-1,3,5-triazine], under setting [1], the IC50 was ≤ 1000 nM.

Turning to `Cc1cc(F)ccc1-c1nc(N2CCOCC2)nc(N2CCN(c3ccccn3)CC2)n1` [Example 273, 2-(4-fluoro-2-methylphenyl)-4-morpholin-4-yl-6-(4-pyridin-2-ylpiperazin-1-yl)-1,3,5-triazine], the IC50 under setting [1] was ≤ 1000 nM.

As for `CCc1ccccc1-c1nc(N2CCOCC2)nc(N2CCN(c3ccccn3)CC2)n1` [Example 274, 2-(2-ethylphenyl)-4-morpholin-4-yl-6-(4-pyridin-2-ylpiperazin-1-yl)-1,3,5-triazine], the IC50 under setting [1] was ≤ 1000 nM.

Consider `Cc1ccc(-c2nc(N3CCOCC3)nc(N3CCN(c4ccccn4)CC3)n2)c2ccccc12` [Example 276, 2-(4-methyl-1-naphthyl)-4-morpholin-4-yl-6-(4-pyridin-2-ylpiperazin-1-yl)-1,3,5-triazine], for which, under setting [1], the IC50 was ≤ 1000 nM.

With `Fc1ccc(F)c(-c2nc(N3CCOCC3)nc(N3CCN(c4ccccn4)CC3)n2)c1` [Example 422, 2-(2,5-difluorophenyl)-4-morpholin-4-yl-6-(4-pyridin-2-ylpiperazin-1-yl)-1,3,5-triazine], the IC50 under setting [2] is ≤ 1000 nM.

In the case of `Fc1ccc(-c2nc(N3CCOCC3)nc(N3CCN(c4ccccn4)CC3)n2)c(F)c1` [Example 423, 2-(2,4-difluorophenyl)-4-morpholin-4-yl-6-(4-pyridin-2-ylpiperazin-1-yl)-1,3,5-triazine], the IC50 under setting [2] was ≤ 1000 nM.

On to `Fc1ccc(-c2nc(N3CCOCC3)nc(N3CCN(c4ccccn4)CC3)n2)cc1F` [Example 424, 2-(3,4-difluorophenyl)-4-morpholin-4-yl-6-(4-pyridin-2-ylpiperazin-1-yl)-1,3,5-triazine], for which the IC50 under setting [2] was ≤ 1000 nM.

As for `Fc1ccc(-c2nc(N3CCOCC3)nc(N3CCN(c4ncccc4C(F)(F)F)CC3)n2)cc1Cl` [Example 426, 2-(3-chioro-4-fluorophenyl)-4-morpholin-4-yl-6-{4-[3-(trifluoromethyl)pyridin-2-yl]piperazin-1-yl}-1,3,5-triazine], under setting [2], the IC50 is ≤ 1000 nM.

Consider `Fc1ccc(-c2nc(N3CCOCC3)nc(N3CCN(c4ncccc4Cl)CC3)n2)cc1Cl` [Example 427, 2-(3-chloro-4-fluorophenyl)-4-[4-(3-chloropyridin-2-yl)piperazin-1-yl]-6-morpholin-4-yl-1,3,5-triazine], for which the IC50 under setting [2] was ≤ 1000 nM.

With `Fc1ccc(-c2nc(N3CCOCC3)nc(N3CCN(c4ncccc4C(F)(F)F)CC3)n2)cc1F` [Example 428, 2-(3,4-difluorophenyl)-4-morpholin-4-yl-6-{4-[3-(trifluoromethyl)pyridin-2-yl]piperazin-1-yl}-1,3,5-triazine], the 50% inhibitory concentration (IC50) under setting [2] was ≤ 1000 nM.

Regarding `COc1ccc(C(C)C)cc1-c1nc(N2CCOCC2)nc(N2CCN(c3ccccn3)CC2)n1` [Example 430, 2-(5-isopropyl-2-methoxyphenyl)-4-morpholin-4-yl-6-(4-pyridin-2-ylpiperazin-1-yl)-1,3,5-triazine], the IC50 under setting [2] was ≤ 1000 nM.

On to `COc1ccc(Cl)cc1-c1nc(N2CCOCC2)nc(N2CCN(c3ccccn3)CC2)n1` [Example 431, 2-(5-chloro-2-methoxyphenyl)-4-morpholin-4-yl-6-(4-pyridin-2-ylpiperazin-1-yl)-1,3,5-triazine], for which the IC50 under setting [2] was ≤ 1000 nM.

Regarding `c1ccc(N2CCN(c3nc(-c4cccc5c4oc4ccccc45)nc(N4CCOCC4)n3)CC2)nc1` [Example 432, 2-dibenzo[b,d]furan-4-yl-4-morpholin-4-yl-6-(4-pyridin-2-ylpiperazin-1-yl)-1,3,5-triazine], under setting [2], the IC50 was ≤ 1000 nM.

`CCOC(=O)c1cccc(-c2nc(N3CCOCC3)nc(N3CCN(c4ccccn4)CC3)n2)c1` [Example 434, ethyl 3-[4-morpholin-4-yl-6-(4-pyridin-2-ylpiperazin-1-yl)-1,3,5-triazin-2-yl]benzoate]: the IC50 under setting [2] was ≤ 1000 nM.

For `N#Cc1cccc(-c2nc(N3CCOCC3)nc(N3CCN(c4ncccc4C(F)(F)F)CC3)n2)c1` [Example 435, 3-(4-morpholin-4-yl-6-{4-[3-(trifluoromethyl)pyridin-2-yl]piperazin-1-yl}-1,3,5-triazin-2-yl)benzonitrile], under setting [2], the IC50 is ≤ 1000 nM.

Take `N#Cc1ccc(-c2nc(N3CCOCC3)nc(N3CCN(c4ncccc4C(F)(F)F)CC3)n2)cc1` [Example 436, 4-(4-morpholin-4-yl-6-{4-[3-(trifluoromethyl)pyridin-2-yl]piperazin-1-yl}-1,3,5-triazin-2-yl)benzonitrile]: the IC50 under setting [2] was ≤ 1000 nM.

With `FC(F)(F)c1ccc(-c2nc(N3CCOCC3)nc(N3CCN(c4ncccc4C(F)(F)F)CC3)n2)cc1` [Example 437, 2-morpholin-4-yl-4-[4-(trifluoromethyl)phenyl]-6-{4-[3-(trifluoromethyl)pyridin-2-yl]piperazin-1-yl}-1,3,5-triazine], the IC50 under setting [2] was ≤ 1000 nM.
